Test [1] deals with PI3K. Nature of the test: Immunofluorescence of Ptdlns-3,4,5-P3 production in SYF/cSrc cells. It is filed as cell-based, mouse. On the procedure: SYF/cSrc cells were serum-starved for 24 hours. Cells stimulated with 10% serum (panels c-f), 100 nM PMA for 5 (panels g-h), or 15 minutes (panels i-j); as well as treated with 100 nM PMA in combination with 6 μM bisindolylmaleimide [I] (panels k-I) or 50 nM wortmannin (panels m-n). Cells treated with 100 nM PMA in combination with 5 μM PP1 (panel o-p) and Ptdlns-3,4,5-P3 levels evaluated. Cells were immunolabeled with a PI-3,4,5-P3-specific antibody (Echelon, Inc.;1:100) and TRITC-phalloidin (1:500). Secondary antibody for anti-PI-3,4,5-P3 (1:100) was Alexa IgM 647 anti-mouse (1:200). Bars represent 20 μm.
SYF, SYF/cSrc, p85α+/+ and p85−/− cells were cultured in standard culture media. Transient transfections of SYF, SYF/cSrc, p85α+/+ cells for immunofluorescence were carried out using LipofectAMINE™ Reagent (Invitrogen) as per manufacturer's protocol. Briefly, Approximately 5.0-8.0×10^4 cells per well were transfected at 50-70% confluent on coverstips with 2-4 μg of plasmid DNA and incubated for 3-4 hours. Thirty-six hours after transfection, cells were serum starved for 12 hours, treated, and subsequently fixed and permeablized as previously described (Qian, Y. et. al., 1998). Cells were treated with a PKC activator, 100 nM PMA for 5 or 15 minutes or in combination with the following pretreatments; a PKC inhibitor, 6 μM bisindolylmaleimide [I] for six hours; or PI3K inhibitor, 10 μM LY294002 for six hours; 50 nM Wortmannin for 30 minutes; and/or a Src family inhibitor, 5 μM PP1 for six hours. For actin labeling, a 1:500 dilution of TRITC-phalloidin was used as labeled in the figures. Primary antibody concentrations used were diluted in 5% Bovine Serum Albumin (BSA) dissolved in 1× phosphate-buffered saline (PBS): EC10 mAb-1:500; Phospho-Src Family (Y416) pAb-1:250; Anti-PI-3,4,5-P3 mAb-1:100; Anti-AFAP-110 (F1)pAb-1:1000; Anti-cSrc pAb-1:500; Anti-flag-1:1000. All fluorescent secondary and phalloidin antibodies were diluted 1:200 in 5% BSA, and are labeled according to figure legends. Cells were washed and mounted on slides with Fluoromount-G (Fisher). A Zeiss LSM 510 confocal microscope was used to scan images of about 1 μM in thickness. To prevent cross-contamination between the different fluorochromes, each channel was imaged sequentially using the multitrack recording module before merging the images. For all figures, representative cells are shown (>100 cells examined per image shown).
Ptdlns-3,4,5-P3 production was measured using the anti-Ptdlns-3,4,5-P3 antibody (Echelon, inc.) for analysis by immunofluorescence and contrasted with stress filament integrity, measured using TRITC-phalloidin as previously described (Chen, R. et. al., 2002; Hama, H. et. al., 2004). SYF/cSrc cells were left untreated or treated with serum as controls for PI3K activation. […] In addition, SYF/cSrc cells were stimulated with PMA for 5 or 15 minutes.

For test [2], the target named is T1, PH1 domain of AFAP-110 (Gallus gallus, UniProt Q90738).
T1 construct: AFAP-110 contains two PH domains, one amino terminal (PH1) and the other carboxy terminal (PH2); made in house; host or cells: bacteria
T1 sequence (Q90738 153-249 limits assumed): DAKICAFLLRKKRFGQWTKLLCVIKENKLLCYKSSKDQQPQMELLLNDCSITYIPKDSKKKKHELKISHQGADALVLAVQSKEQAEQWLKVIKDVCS
In words: Lipid binding assay (Far Western), GST-PH1. Particulars: 0.5 μg/ml fusion protein, lipids spotted on membrane. On the procedure:
FIG. 5: The phospholipid binding properties of the PH domains of AFAP-110. A) Pleckstrin homology fusion proteins, GST-PH1, GST-PH2 and GST-DAPP1, were purified from bacteria by affinity chromatography. Phospholipids were spotted onto PVDF membranes as described in the methods section. The membranes were incubated overnight with 0.5 μg/ml • GST-PH1, GST-PH2 or GST-DAPP1. Washed membranes were incubated with anti-GST antibody and exposed to film.
B) Pleckstrin homology fusion protein, GST-PH1, was purified from bacteria by affinity chromatography. Two-fold changes in concentration (1.6 pg-100.0 pg) of phospholipids were spotted onto PVDF membranes as described in the methods section. The PIP arrays were incubated with 0.5 μg/ml fusion protein and probed with anti-GST antibody.
Pleckstrin homology (PH) fusion proteins GST-PH1, GST-PH2 and GST-DAPP1, were purified from bacteria by affinity chromatography. A Far Western Blot procedure was used for detecting the fusion protein binding to nitrocellulose immobilized phospholipids (Stevenson, J. Met. al., 1998); PIP strips and PIP arrays were purchased from Echelon, Inc. Overlay assays measured the relative amounts of GST-tagged fusion protein bound to spotted phospholipids. A plasmid encoding GST-DAPP1 previously shown to bind Ptdlns-3,4-P2 and Ptdlns-3,4,5-P3 (Dowler, S. et. al., 1999) was used as a control, kindly provided by Mark Lemmon (Lemmon, M. A., 2003). The membranes were wetted with methanol and then transferred to blocking solution composed of 3% BSA in TBS containing 1% Tween-20 (TBS-T) for 1 hour at 4° C. Membranes were incubated with 0.5 μg/ml each fusion proteins in TBS-T overnight at 4° C. Following incubation, membranes were rinsed three times with TBS-T, washed for 5 minutes and incubated at 4° C. for 1 hour with anti-GST antibody (1:20000 in TBS-T). Following the standard wash procedure, membranes were incubated at 4° C. for 30 minutes with peroxidase-conjugated secondary antibody (1:30000 in TBS-T). The washed membranes were incubated with chemiluminescence reagent and exposed to X-ray film.

Test [3] deals with T1, PH1 domain of AFAP-110. Nature of the test: Lipid sedimentation assay, GST-PH1. To be noted: PC vesicles with lipid 19:1 (PC:PS 7:3), 0.025 mM GST fusion protein. In kind it is binding. On the procedure: E) Lipid sedimentation assay was performed using pleckstrin homology fusion protein GST-PH1 as described in the methods sections. The GST-PH1 fusion protein has the capacity to co-sediment with several lipids containing vesicles as indicated in the pellet (P). Soluble fractions (S) containing unbound GST-PH1 purified fusion proteins were resolved by SDS-PAGE and detected by Coomassie stain.
A sedimentation assay was used to detect PH domain protein association with membrane phospholipids. Phospholipid stock solutions: 1 mg/ml L-α-Ptdlns-4-P, 1.0 mg/ml 1,2-dipalmitoyl-sn-glycero-3-Ptdlns-3-P, 0.1 mg/ml 1,2-dioleoyl-sn-glycero-3-Ptdlns-3,4-P2, and 1 mg/ml L-α-Ptdlns-4,5-P2 in chloroform:methanol:water (60:30:4). However, 10 mg/ml L-α-phosphatidylinositol, 0.1 mg/ml L-α Ptdlns-3-P, 0.2 mg/ml L-α-Ptdlns-3,4,5-P3, 10 mg/ml L-α-phosphatidylserine, and 10 mg/ml L-α-phosphatidylcholine in chloroform neat. All lipid stocks were purged with dry N2 and stored −20° C. The lipid vesicles were prepared as follows utilizing a sonication method. Briefly, in a heavy walled tube, PC and another stock phospholipid (e.g. Ptdlns, Ptdlns-3-P, Ptdlns-4-P, Ptdlns-3,4-P2, Ptdlns-3,5-P2, Ptdlns-3,4,5-P3, or PC) were combined in a 19:1 molar ratio; PC and PS were combined in a 7:3 molar ratio. Lipids were dried with a stream of N2 and traces of solvent were removed by vacuum and resuspended to 5.2 mM PC in buffer B [10 mM HEPES, pH 7.5, 50 mM KCl, 0.5 mM EGTA, and 1.0 mM MgCl2]. The resulting phospholipid sheets were sonicated to form vesicles. Samples were prepared to contain 1.7 mM vesicle PC and 0.025 mM recombinant GST fusion protein (DAPP1 or PH1) in buffer B. Samples were incubated 60 min and centrifuged with a Beckman Airfuge for 15 min at room temperature. 16% of the supernatant and 100% of the pellet from each sample was used for analysis by Laemmli method of SDS polyacrylamide gel electrophoresis. The gels were stained with SYPRO Orange or Coomassie Blue to visualize the proteins.

For `Cc1ccc(-c2nn(C(C)(C)C)c3ncnc(N)c23)cc1` [PP1], the “PMA-directed changes in stress filaments and cell shape” value in test [1] (100 nM PMA with 5 μM PP1) is on record as “impeded”. Moreover, the “PMA-induced Ptdlns-3,4,5-P3 production” value in test [1] (100 nM PMA with 6 μM bisindolylmaleimide [I], 50 nM wortmannin, LY294002 or 5 μM PP1) is “did not block”. For the molecule `CCCCCCCCCCCCCCCC(=O)OC[C@H](COP(=O)(O)O[C@@H]1[C@H](O)[C@H](OP(=O)(O)O)[C@@H](O)[C@H](O)[C@H]1O)OC(=O)CCCCCCCCCCCCCCC` [Ptdlns-3-P, phosphatidylinositol-3-phosphate], in test [2], the “binding of GST-PH1 to immobilized phospholipid (far western)” value (“binding of GST-PH1” for short) is on record as “strong binding”. The “binding (co-sedimentation) of GST-PH1 to lipid vesicles containing the lipid” value (from here on “binding (co-sedimentation) of GST-PH1”) in test [3] is listed as “did not bind”. For the molecule Lysophosphatidic acid, in test [2], the “binding of GST-PH1” value is recorded as “not recognized”. The same measure, in the same setting: for Phosphatidylethanolamine the value was “not recognized”; for phosphatidic acid, “better than any other phospholipid analyzed”. Take phosphatidylinositol: the “binding of GST-PH1” value in test [2] was “did not bind”. With “phosphatidylinositol-4-phosphate [Ptdlns-4-P]”, in test [2], the “binding of GST-PH1” value is recorded as “strong binding”. Further, the “binding (co-sedimentation) of GST-PH1” value in test [3] was “has the capacity to bind”. Consider “phosphatidylinositol-5-phosphate [Ptdlns-5-P]”, for which the “binding of GST-PH1” value in test [2] is reported as “strong binding”. The “binding (co-sedimentation) of GST-PH1” value in test [3] is reported as “has the capacity to bind”.

phosphatidylserine: in test [2], the “binding of GST-PH1” value is “had the capacity to recognize”. Further, in test [3], the “binding (co-sedimentation) of GST-PH1” value was “has the capacity to bind”.

Source of the values: patent US20080234232A1, “Methods and compositions for targeting AFAP” (priority 2007, published 2008).
